From patent US20080262009A1, “CRYSTALLINE POLYMORPHS OF N-(3-(DIMETHYLAMINO)PROPYL)-4-(4-(3-FLUORO-4-METHOXYPHENYL) PYRIMIDIN-2-YLAMINO) BENZENESULFONAMIDE AS ACETATE SALTS” (Wyeth, priority 2007, published 2008)

Assays:
Water solubility = test: Water solubility
Excerpt: HCl, phosphoric acid, tartaric acid, acetic acid, D-glucoronic acid and succinic acid were used to prepare pharmaceutically acceptable salts of compound 3.

[1] = Solubility in organic solvents / group 3 solvents; assay type: physicochemical

Row | SMILES | solubility (Water solubility; water) | Solubility in water (Water solubility; by a thermogravimeteric method) | water solubility (in words) (Water solubility; free base form, general statement) | solubility in THF, DMSO and DMF ([1]; THF, DMSO and DMF) | solubility in group 3 solvents, including water ([1]; group 3 solvents, including water)
1 | CC(=O)O.COc1ccc(-c2ccnc(Nc3ccc(S(=O)(=O)NCCCN(C)C)cc3)n2)cc1F [acetate salt of compound 3] | 3500 µg/mL | – | – | – | –
2 | COc1ccc(-c2ccnc(Nc3ccc(S(=O)(=O)NCCCN(C)C)cc3)n2)cc1F [compound 3] | – | not detectable | little to no | high | low
